{"source": "patent US12421232B2", "about": "“Kinase inhibitor compounds and compositions and methods of use” (ICAHN SCHOOL OF MEDICINE AT MOUNT SINAI, priority 2018, dated 2025)", "experiment_in_all_cases": "KINOMEscan Assay (DiscoverX)", "format_in_all_cases": "binding", "details_in_all_cases": "read-out: % DMSO Ctrl", "key": {"ROCK1": {"molecular_target": "T1, ROCK1 (Homo sapiens, UniProt Q13464)", "T1 construct": "purchased DiscoverX"}, "EGFR(L858R,T790M)": {"molecular_target": "T2, EGFR(L858R,T790M) (Homo sapiens, UniProt P00533, L858R/T790M)", "T2 construct": "purchased DiscoverX", "T2 sequence (P00533 25-1210 T790M/L858R)": "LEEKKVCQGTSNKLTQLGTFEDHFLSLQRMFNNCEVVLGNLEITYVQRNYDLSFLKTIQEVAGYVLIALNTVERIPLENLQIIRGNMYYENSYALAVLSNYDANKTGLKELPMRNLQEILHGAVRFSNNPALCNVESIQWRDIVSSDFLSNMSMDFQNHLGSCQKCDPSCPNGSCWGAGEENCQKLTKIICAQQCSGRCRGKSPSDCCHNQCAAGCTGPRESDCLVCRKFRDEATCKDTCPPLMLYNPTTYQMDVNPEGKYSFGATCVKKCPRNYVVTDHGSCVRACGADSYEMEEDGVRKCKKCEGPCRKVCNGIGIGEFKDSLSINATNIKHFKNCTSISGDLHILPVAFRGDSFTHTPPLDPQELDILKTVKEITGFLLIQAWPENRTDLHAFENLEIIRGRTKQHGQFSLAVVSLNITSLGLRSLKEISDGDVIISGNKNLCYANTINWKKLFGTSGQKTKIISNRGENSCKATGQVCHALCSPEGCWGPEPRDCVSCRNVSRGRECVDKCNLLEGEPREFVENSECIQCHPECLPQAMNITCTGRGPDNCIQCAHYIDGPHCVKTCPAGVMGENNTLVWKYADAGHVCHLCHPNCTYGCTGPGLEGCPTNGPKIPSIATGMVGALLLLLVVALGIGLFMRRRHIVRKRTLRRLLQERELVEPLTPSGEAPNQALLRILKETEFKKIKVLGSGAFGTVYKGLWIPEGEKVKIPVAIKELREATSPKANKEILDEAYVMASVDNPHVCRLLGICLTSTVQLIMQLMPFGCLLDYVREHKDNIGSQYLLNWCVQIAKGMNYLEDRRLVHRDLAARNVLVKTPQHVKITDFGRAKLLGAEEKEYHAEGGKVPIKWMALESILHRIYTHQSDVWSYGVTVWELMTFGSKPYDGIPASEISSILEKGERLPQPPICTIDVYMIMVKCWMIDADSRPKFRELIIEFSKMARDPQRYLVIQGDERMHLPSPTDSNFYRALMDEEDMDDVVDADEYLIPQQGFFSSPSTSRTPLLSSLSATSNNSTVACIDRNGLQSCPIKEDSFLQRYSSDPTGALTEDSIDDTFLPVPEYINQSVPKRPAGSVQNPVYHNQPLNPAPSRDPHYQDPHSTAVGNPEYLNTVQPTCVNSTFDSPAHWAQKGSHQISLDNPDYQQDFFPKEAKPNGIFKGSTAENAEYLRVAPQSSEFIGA"}, "LRRK2(G2019S)": {"molecular_target": "T3, LRRK2(G2019S) (Homo sapiens, UniProt Q5S007, G2019S)", "T3 construct": "purchased DiscoverX"}, "TAOK3": {"molecular_target": "T4, TAOK3 (Homo sapiens, UniProt Q9H2K8)", "T4 construct": "purchased DiscoverX", "T4 sequence (Q9H2K8 1-898)": "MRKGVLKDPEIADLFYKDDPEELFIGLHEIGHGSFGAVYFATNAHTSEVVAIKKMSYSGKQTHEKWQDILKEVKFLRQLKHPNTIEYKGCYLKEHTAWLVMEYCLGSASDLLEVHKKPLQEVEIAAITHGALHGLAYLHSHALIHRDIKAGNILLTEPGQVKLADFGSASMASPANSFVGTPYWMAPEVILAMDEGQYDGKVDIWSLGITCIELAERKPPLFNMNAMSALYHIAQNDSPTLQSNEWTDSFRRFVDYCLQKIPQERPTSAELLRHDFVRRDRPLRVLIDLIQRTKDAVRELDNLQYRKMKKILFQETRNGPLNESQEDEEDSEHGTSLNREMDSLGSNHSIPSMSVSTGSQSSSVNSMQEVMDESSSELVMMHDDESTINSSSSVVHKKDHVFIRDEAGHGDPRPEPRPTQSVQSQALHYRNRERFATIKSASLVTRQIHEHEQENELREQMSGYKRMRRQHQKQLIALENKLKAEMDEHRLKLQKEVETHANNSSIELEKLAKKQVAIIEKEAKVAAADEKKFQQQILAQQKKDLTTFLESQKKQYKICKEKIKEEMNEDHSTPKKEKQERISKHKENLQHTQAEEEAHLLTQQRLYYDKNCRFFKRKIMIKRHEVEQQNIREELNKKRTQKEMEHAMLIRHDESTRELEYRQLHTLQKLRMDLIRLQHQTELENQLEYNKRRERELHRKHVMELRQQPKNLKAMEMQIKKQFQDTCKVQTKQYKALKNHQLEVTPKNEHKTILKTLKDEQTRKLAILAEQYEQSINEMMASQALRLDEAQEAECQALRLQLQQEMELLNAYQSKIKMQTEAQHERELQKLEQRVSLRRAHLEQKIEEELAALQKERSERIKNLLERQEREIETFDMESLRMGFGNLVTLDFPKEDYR"}, "IRAK4": {"molecular_target": "T5, IRAK4 (Homo sapiens, UniProt Q9NWZ3)", "T5 construct": "purchased DiscoverX", "T5 sequence (Q9NWZ3 1-460)": "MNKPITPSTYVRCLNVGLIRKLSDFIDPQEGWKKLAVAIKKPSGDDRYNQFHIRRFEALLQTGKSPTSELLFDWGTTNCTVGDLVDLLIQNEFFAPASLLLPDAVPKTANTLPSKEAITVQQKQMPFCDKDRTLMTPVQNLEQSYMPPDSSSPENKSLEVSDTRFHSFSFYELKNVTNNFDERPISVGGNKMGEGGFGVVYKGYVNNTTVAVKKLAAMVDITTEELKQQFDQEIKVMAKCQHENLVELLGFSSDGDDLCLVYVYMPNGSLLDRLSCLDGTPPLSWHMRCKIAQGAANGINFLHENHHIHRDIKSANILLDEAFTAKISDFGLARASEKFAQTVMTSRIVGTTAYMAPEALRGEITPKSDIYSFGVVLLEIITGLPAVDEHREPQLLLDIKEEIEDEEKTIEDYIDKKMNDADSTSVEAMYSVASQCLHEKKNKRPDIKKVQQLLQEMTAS"}, "[1]": {"molecular_target": "T6, JAK3(JH1DOMAIN-CATALYTIC) (Homo sapiens, UniProt P52333)", "T6 construct": "JH1DOMAIN; purchased DiscoverX", "T6 sequence (P52333 822-1111 limits assumed)": "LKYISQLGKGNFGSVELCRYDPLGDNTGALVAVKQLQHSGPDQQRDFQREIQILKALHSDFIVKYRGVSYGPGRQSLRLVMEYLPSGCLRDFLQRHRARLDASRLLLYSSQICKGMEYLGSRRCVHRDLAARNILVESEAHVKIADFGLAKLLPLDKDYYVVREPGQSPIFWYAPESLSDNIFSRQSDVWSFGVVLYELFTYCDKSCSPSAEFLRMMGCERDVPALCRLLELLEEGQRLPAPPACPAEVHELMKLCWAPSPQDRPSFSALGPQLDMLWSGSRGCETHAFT"}, "PIK3CG": {"molecular_target": "T7, PIK3CG (Homo sapiens, UniProt P48736)", "T7 construct": "purchased DiscoverX", "T7 sequence (P48736 whole entry)": "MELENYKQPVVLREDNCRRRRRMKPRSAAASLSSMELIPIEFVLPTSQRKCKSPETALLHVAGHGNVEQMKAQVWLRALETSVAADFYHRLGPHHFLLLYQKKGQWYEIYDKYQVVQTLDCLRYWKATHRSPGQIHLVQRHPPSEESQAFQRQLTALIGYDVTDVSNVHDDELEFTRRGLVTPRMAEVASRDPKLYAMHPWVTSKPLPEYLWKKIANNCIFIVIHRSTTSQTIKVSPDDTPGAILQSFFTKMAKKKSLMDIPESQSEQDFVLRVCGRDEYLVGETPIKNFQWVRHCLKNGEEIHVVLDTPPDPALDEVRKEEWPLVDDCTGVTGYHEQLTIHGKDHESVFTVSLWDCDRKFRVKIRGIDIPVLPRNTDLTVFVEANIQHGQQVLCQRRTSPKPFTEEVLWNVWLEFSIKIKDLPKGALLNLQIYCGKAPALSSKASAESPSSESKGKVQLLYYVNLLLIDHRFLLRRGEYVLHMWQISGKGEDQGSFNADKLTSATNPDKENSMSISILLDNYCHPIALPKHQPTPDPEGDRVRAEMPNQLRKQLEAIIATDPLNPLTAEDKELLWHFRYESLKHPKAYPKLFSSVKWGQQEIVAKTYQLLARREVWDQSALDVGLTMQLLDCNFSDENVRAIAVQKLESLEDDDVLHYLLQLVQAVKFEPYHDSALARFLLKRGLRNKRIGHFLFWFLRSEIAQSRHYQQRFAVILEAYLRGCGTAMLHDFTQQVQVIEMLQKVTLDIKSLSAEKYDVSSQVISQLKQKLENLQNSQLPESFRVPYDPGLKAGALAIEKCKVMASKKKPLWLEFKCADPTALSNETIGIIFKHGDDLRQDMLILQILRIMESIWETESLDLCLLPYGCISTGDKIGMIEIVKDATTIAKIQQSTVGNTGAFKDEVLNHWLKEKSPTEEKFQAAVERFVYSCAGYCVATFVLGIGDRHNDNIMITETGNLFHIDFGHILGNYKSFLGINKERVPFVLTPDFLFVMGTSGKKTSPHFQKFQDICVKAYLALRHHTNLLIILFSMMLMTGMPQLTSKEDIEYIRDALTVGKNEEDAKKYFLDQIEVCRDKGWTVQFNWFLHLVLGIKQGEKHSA"}, "ADCK4": {"molecular_target": "T8, ADCK4 (Homo sapiens, UniProt Q96D53)", "T8 construct": "purchased DiscoverX", "T8 sequence (Q96D53 1-544)": "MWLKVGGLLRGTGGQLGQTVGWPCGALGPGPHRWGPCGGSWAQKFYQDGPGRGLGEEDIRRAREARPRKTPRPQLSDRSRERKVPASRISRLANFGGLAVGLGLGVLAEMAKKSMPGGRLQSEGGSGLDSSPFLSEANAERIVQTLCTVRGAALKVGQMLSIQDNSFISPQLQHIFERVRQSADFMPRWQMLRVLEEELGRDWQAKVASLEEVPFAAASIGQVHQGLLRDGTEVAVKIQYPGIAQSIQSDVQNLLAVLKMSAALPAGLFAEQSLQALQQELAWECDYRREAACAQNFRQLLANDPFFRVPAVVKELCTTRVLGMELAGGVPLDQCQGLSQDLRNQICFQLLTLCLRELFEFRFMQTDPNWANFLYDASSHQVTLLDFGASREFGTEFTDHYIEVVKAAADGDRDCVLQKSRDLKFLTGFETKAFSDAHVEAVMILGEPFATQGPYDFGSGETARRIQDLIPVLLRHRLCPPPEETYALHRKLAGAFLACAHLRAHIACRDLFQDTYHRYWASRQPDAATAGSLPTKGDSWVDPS"}, "PDGFRB": {"molecular_target": "T9, PDGFRB (Homo sapiens, UniProt P09619)", "T9 construct": "purchased DiscoverX", "T9 sequence (P09619 33-1106)": "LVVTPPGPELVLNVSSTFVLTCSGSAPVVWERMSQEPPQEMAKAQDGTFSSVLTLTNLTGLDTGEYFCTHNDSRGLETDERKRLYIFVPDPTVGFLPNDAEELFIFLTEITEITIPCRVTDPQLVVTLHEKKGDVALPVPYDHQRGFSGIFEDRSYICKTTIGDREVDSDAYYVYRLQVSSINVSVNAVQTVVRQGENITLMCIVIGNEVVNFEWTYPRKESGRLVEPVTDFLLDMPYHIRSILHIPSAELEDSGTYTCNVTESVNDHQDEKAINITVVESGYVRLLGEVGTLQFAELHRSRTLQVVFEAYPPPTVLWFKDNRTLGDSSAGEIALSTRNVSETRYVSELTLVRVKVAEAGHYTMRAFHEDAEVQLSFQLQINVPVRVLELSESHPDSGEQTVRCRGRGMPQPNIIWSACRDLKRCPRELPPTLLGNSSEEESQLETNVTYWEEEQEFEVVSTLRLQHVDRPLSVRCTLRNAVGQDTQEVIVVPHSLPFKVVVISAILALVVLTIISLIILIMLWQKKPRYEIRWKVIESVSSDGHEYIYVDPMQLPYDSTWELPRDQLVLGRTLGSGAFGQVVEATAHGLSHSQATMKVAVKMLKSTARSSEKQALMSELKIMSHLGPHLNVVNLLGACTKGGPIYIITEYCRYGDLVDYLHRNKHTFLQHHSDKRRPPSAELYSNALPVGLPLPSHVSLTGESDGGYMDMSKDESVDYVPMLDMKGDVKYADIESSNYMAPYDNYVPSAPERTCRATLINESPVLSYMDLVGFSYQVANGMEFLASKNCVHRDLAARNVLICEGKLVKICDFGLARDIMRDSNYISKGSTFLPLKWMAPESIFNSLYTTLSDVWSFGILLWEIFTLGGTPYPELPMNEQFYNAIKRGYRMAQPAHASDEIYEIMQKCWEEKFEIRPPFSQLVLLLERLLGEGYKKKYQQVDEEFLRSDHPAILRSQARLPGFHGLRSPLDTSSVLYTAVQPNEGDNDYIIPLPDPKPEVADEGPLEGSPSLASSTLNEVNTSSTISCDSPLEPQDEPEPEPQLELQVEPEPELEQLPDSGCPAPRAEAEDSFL"}, "PIM1": {"molecular_target": "T10, PIM1 (Homo sapiens, UniProt P11309)", "T10 construct": "purchased DiscoverX", "T10 sequence (P11309 whole entry)": "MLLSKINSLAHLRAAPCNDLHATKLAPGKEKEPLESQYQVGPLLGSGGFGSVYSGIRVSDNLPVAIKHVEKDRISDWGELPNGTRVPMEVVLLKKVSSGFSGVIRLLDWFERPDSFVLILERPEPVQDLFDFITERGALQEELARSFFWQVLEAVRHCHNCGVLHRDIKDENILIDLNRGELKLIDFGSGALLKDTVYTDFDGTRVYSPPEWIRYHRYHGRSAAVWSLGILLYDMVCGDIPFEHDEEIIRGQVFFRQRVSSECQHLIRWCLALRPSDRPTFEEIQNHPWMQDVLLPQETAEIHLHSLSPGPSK"}, "IRAK1": {"molecular_target": "T11, IRAK1 (Homo sapiens, UniProt P51617)", "T11 construct": "purchased DiscoverX", "T11 sequence (P51617 whole entry)": "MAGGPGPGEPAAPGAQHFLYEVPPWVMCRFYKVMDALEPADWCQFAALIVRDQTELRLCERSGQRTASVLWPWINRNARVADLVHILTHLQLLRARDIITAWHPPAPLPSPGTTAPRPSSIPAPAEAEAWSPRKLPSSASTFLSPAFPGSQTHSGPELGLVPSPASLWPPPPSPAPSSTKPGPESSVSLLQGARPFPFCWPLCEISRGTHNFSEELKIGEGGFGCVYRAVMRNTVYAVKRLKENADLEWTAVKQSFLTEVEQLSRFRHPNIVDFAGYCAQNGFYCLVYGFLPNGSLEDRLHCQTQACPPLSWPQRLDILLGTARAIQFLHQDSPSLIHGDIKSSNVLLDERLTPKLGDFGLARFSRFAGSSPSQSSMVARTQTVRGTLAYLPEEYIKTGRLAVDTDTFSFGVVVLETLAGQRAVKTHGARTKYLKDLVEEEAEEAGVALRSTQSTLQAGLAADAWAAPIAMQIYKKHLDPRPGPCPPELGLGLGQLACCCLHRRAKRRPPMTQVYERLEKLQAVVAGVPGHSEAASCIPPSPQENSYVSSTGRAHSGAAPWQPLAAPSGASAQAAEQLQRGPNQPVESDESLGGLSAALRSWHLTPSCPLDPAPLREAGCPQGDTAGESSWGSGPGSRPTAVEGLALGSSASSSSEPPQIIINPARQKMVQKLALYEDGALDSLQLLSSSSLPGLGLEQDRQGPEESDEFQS"}}, "note": "Like-named read-outs stand apart in the source and are kept apart here."}
{"smiles": "COc1ccc2c(c1)[nH]c1c(C)nc(CO)cc12", "note": "[Compound 2-8, (1-Methyl-7-methoxy-9H-pyrido[3,4-b]indol-3-yl)methanol]", "values": [{"measurement": "remaining binding at 10 µM", "setting": "ROCK1; ROCK1, 10 μM", "result": 33, "unit": "%"}, {"measurement": "remaining binding at 10 µM", "setting": "EGFR(L858R,T790M); EGFR(L858R,T790M) mutant, 10 μM", "result": 79, "unit": "%"}, {"measurement": "remaining binding at 10 µM", "setting": "LRRK2(G2019S); LRRK2(G2019S) mutant, 10 μM", "result": 98, "unit": "%"}, {"measurement": "remaining binding at 10 µM", "setting": "TAOK3; TAOK3, 10 μM", "result": 70, "unit": "%"}, {"measurement": "remaining binding at 10 µM", "setting": "IRAK4; IRAK4, 10 μM", "result": 70, "unit": "%"}, {"measurement": "remaining binding at 10 µM", "setting": "[1]; JAK3(JH1DOMAIN-[…]), 10 μM", "result": 96, "unit": "%"}, {"measurement": "remaining binding at 10 µM", "setting": "PIK3CG; PIK3CG, 10 μM", "result": 67, "unit": "%"}, {"measurement": "remaining binding at 10 µM", "setting": "ADCK4; ADCK4, 10 μM", "result": 84, "unit": "%"}, {"measurement": "remaining binding at 10 µM", "setting": "PDGFRB; PDGFRB, 10 μM", "result": 97, "unit": "%"}]}
{"smiles": "COc1ccc2c3ccnc(C)c3n(CCCc3noc(N)n3)c2c1", "note": "[Compound 20-13, 3-(3-(7-Methoxy-1-methyl-β-carbolin-9-yl)propyl)-5-amino-1,2,4-oxadiazole]", "values": [{"measurement": "remaining binding at 10 µM", "setting": "ROCK1", "result": 24, "unit": "%"}, {"measurement": "remaining binding at 10 µM", "setting": "EGFR(L858R,T790M)", "result": 9.2, "unit": "%"}, {"measurement": "remaining binding at 10 µM", "setting": "LRRK2(G2019S)", "result": 5.1, "unit": "%"}, {"measurement": "remaining binding at 10 µM", "setting": "TAOK3", "result": 77, "unit": "%"}, {"measurement": "remaining binding at 10 µM", "setting": "IRAK4", "result": 90, "unit": "%"}, {"measurement": "remaining binding at 10 µM", "setting": "PIM1", "result": 28, "unit": "%"}, {"measurement": "remaining binding at 10 µM", "setting": "[1]", "result": 87, "unit": "%"}, {"measurement": "remaining binding at 10 µM", "setting": "PIK3CG", "result": 3.3, "unit": "%"}, {"measurement": "remaining binding at 10 µM", "setting": "IRAK1", "result": 58, "unit": "%"}, {"measurement": "remaining binding at 10 µM", "setting": "ADCK4", "result": 100, "unit": "%"}, {"measurement": "remaining binding at 10 µM", "setting": "PDGFRB", "result": 100, "unit": "%"}]}
{"smiles": "C#CCn1c2cc(OC)ccc2c2ccnc(C)c21", "note": "[Compound 20-23a, 3-(7-Methoxy-1-methyl-β-carbolin-9-yl)-propan-1-yne]", "values": [{"measurement": "remaining binding at 10 µM", "setting": "ROCK1; ROCK1, 10 μM", "result": 9.2, "unit": "%"}, {"measurement": "remaining binding at 10 µM", "setting": "EGFR(L858R,T790M)", "result": 100, "unit": "%"}, {"measurement": "remaining binding at 10 µM", "setting": "LRRK2(G2019S)", "result": 100, "unit": "%"}, {"measurement": "remaining binding at 10 µM", "setting": "TAOK3", "result": 93, "unit": "%"}, {"measurement": "remaining binding at 10 µM", "setting": "IRAK4", "result": 6.4, "unit": "%"}, {"measurement": "remaining binding at 10 µM", "setting": "PIM1; PIM1, 10 μM", "result": 26, "unit": "%"}, {"measurement": "remaining binding at 10 µM", "setting": "[1]; JAK3(JH1DOMAIN-[…]), 10 μM", "result": 100, "unit": "%"}, {"measurement": "remaining binding at 10 µM", "setting": "PIK3CG", "result": 42, "unit": "%"}, {"measurement": "remaining binding at 10 µM", "setting": "IRAK1; IRAK1, 10 μM", "result": 42, "unit": "%"}, {"measurement": "remaining binding at 10 µM", "setting": "ADCK4", "result": 9.3, "unit": "%"}, {"measurement": "remaining binding at 10 µM", "setting": "PDGFRB", "result": 77, "unit": "%"}]}
{"smiles": "COc1ccc2c(c1)[nH]c1c(C)nccc12", "note": "[Harmine, reference compound]", "values": [{"measurement": "remaining binding at 10 µM", "setting": "ROCK1", "result": 26, "unit": "%"}, {"measurement": "remaining binding at 10 µM", "setting": "PIM1", "result": 45, "unit": "%"}, {"measurement": "remaining binding at 10 µM", "setting": "[1]", "result": 61, "unit": "%"}, {"measurement": "remaining binding at 10 µM", "setting": "IRAK1", "result": 17, "unit": "%"}]}
